Test system: mosquitoes
Assay: Field test in southern Florida, one-minute biting count on lower leg of human test subjects wearing patches
Type: in vivo
From the text: We also conducted some field tests of the present invention in southern Florida using patches 10 dosed with metofluthrin. Human test subjects and designated untreated control entered the test site, each test subject being separated by a minimum of 25 meters (approx. 75 feet). Shortly after all test subjects and an untreated control were set up in the test site, a 15 second ‘nuisance’ pre-count was taken by counting or best estimating the number of mosquitoes landing or touching the visual areas on the test suit.
Directly after the ‘nuisance’ count, a one-minute biting pre-count of a lower leg was taken. The pre-count began by having each subject roll up one pant leg to the knee then count the number of mosquitoes landing or biting on the exposed skin over a one minute period. Once a mosquito landed, the insect was pushed away (flicked, swatted or other) from the leg.
After the precounts were made, each test subject attached insect repellent patches 10 to predetermined areas on the test suit. The location of the patches is described below.
Mosquito land or bite counts were then made as described above for the pre-counts, with counts taken every 5 minutes for the first 20 minutes. After the 20 minute count, the test subjects and controls moved locations, walking approximately 15 meters. This was followed by their immediately taking a 15-second nuisance and one-minute biting count. Additional counts were then made at 25 and 30 minutes at that new location. After the 30 minute counts, the test subjects and controls moved location again, walking approximately 15 meters. This is followed by their immediately taking a 15-second nuisance and the one-minute biting count. An additional count was then made again at 35 minutes. The test was concluded after the 35 minute count.
The patches 10 used in the test were treated with metofluthrin, the 103 cm^2 patches bearing 60 mg and the 51.6 cm^2 patches bearing about 30 mg of metofluthrin. The patch material was selected either from a substrate made of a nylon-type material or from a non-woven cloth made of rayon, polyester, polypropylene, and polyethylene fibers. No difference in performance between the two materials was detected.
When four, 103 cm^2 patch samples were used, the patches were placed on the side of each shoulder and on the outwardly facing side of each knee. For the four, 51.6 cm^2 patch samples, the patches were placed on the side of each shoulder and on the top of the shoe. The 103 cm^2 patches were too big to place on the shoe, and therefore only the 51.6 cm^2 patches were placed there. For the two, 51.6 cm^2 patch testing, one patch was placed on one shoulder and another was placed on the outwardly facing side of the opposing knee.
The Average Percent Biting Repellency was calculated using the following formula:
C2=control count at time corresponding with treatment count
T1=precount for test area
T2=test area count at designated time
The percent repellency was calculated by the following formula: […]

Structure (SMILES): CC=C[C@@H]1[C@@H](C(=O)OCc2c(F)c(F)c(COC)c(F)c2F)C1(C)C (racemic) [metofluthrin, 2,3,5,6-tetrafluoro-4-methoxymethylbenzyl (EZ)-(1RS,3RS)-2,2-dimethyl-3-(prop-1-enyl)-cyclopropanecarboxylate]
- Percent Biting Repellency (2 patches (51.6 cm^2, about 30 mg each), 3 reps, 0 min): 0%
- Percent Biting Repellency (2 patches (51.6 cm^2, about 30 mg each), 3 reps, 5 min): 42%
- Percent Biting Repellency (2 patches (51.6 cm^2, about 30 mg each), 3 reps, 10 min): 60%
- Percent Biting Repellency (2 patches (51.6 cm^2, about 30 mg each), 3 reps, 15 min): 90%
- Percent Biting Repellency (2 patches (51.6 cm^2, about 30 mg each), 3 reps, 20 min): 81%
- Percent Biting Repellency (2 patches (51.6 cm^2, about 30 mg each), 3 reps, 21 min, immediately after moving approx. 15 meters): 13%
- Percent Biting Repellency (2 patches (51.6 cm^2, about 30 mg each), 3 reps, 25 min): 82%
- Percent Biting Repellency (2 patches (51.6 cm^2, about 30 mg each), 3 reps, 30 min): 81%
- Percent Biting Repellency (2 patches (51.6 cm^2, about 30 mg each), 3 reps, 31 min, immediately after moving approx. 15 meters): 44%
- Percent Biting Repellency (2 patches (51.6 cm^2, about 30 mg each), 3 reps, 35 min): 73%
- Percent Biting Repellency (3 patches (103 cm^2, 60 mg each), 2 reps, 0 min): 0%
- Percent Biting Repellency (3 patches (103 cm^2, 60 mg each), 2 reps, 5 min): 75%
- Percent Biting Repellency (3 patches (103 cm^2, 60 mg each), 2 reps, 10 min): 100%
- Percent Biting Repellency (3 patches (103 cm^2, 60 mg each), 2 reps, 15 min): 100%
- Percent Biting Repellency (3 patches (103 cm^2, 60 mg each), 2 reps, 20 min): 100%
- Percent Biting Repellency (3 patches (103 cm^2, 60 mg each), 2 reps, 21 min, immediately after moving approx. 15 meters): 16%
- Percent Biting Repellency (3 patches (103 cm^2, 60 mg each), 2 reps, 25 min): 84%
- Percent Biting Repellency (3 patches (103 cm^2, 60 mg each), 2 reps, 30 min): 84%
- Percent Biting Repellency (3 patches (103 cm^2, 60 mg each), 2 reps, 31 min, immediately after moving approx. 15 meters): 64%
- Percent Biting Repellency (3 patches (103 cm^2, 60 mg each), 2 reps, 35 min): 100%
- Percent Biting Repellency (4 patches (103 cm^2), 2 reps, 0 min): 0%
- Percent Biting Repellency (4 patches (103 cm^2), 2 reps, 5 min): 96%
- Percent Biting Repellency (4 patches (103 cm^2), 2 reps, 10 min): 100%
- Percent Biting Repellency (4 patches (103 cm^2), 2 reps, 15 min): 100%
- Percent Biting Repellency (4 patches (103 cm^2), 2 reps, 20 min): 88%
- Percent Biting Repellency (4 patches (103 cm^2), 2 reps, 21 min, immediately after moving approx. 15 meters): 33%
- Percent Biting Repellency (4 patches (103 cm^2), 2 reps, 25 min): 50%
- Percent Biting Repellency (4 patches (103 cm^2), 2 reps, 30 min): 73%
- Percent Biting Repellency (4 patches (103 cm^2), 2 reps, 31 min, immediately after moving approx. 15 meters): 22%
- Percent Biting Repellency (4 patches (103 cm^2), 2 reps, 35 min): 96%
- Percent Biting Repellency (4 patches (103 cm^2, 60 mg each), 1 rep, 0 min): 0%
- Percent Biting Repellency (4 patches (103 cm^2, 60 mg each), 1 rep, 5 min): 85%
- Percent Biting Repellency (4 patches (103 cm^2, 60 mg each), 1 rep, 10 min): 94%
- Percent Biting Repellency (4 patches (103 cm^2, 60 mg each), 1 rep, 15 min): 100%
- Percent Biting Repellency (4 patches (103 cm^2, 60 mg each), 1 rep, 20 min): 92%
- Percent Biting Repellency (4 patches (103 cm^2, 60 mg each), 1 rep, 21 min, immediately after moving approx. 15 meters): 85%
- Percent Biting Repellency (4 patches (103 cm^2, 60 mg each), 1 rep, 25 min): 81%
- Percent Biting Repellency (4 patches (103 cm^2, 60 mg each), 1 rep, 30 min): 100%
- Percent Biting Repellency (4 patches (103 cm^2, 60 mg each), 1 rep, 31 min, immediately after moving approx. 15 meters): 61%
- Percent Biting Repellency (4 patches (103 cm^2, 60 mg each), 1 rep, 35 min): 94%
- personal area repellency in field test (result in words) (patch sizes, dosages and locations of Example 3, even after user moved to a new location): can successfully provide personal area repellency within a very brief time
